We go through seven molecules from article PMC7170889, “Synthesis and evaluation of designed PKC modulators for enhanced cancer immunotherapy” (Nature Communications, 2020).

SMILES strings stand for the structures.

One test has as its target T1, PKCδ-GFP fusion protein (Homo sapiens, UniProt Q05655).
T1 construct: expressed in transfected cells; host or cells: CHO-k1 (Chinese hamster ovary, ATCC)
Briefly: PKCδ-GFP translocation assay in living CHO-k1 cells (confocal microscopy). To be noted: for Emax at 0.2 µM: CHO-K1, 200 nM compound; for Emax at 0.2 µM / Emax at 1 µM: read-out: % Translocation (maximum translocation of PKCδ-GFP to the plasma membrane); for minimum effective concentration required to induce translocation of PKC-GFP to the membrane: tested at 200 and 1000 nM; for PKC activation dynamics (shape of translocation curve): Fig. 5c, d; for Emax at 1 µM: CHO-K1, 1000 nM compound. The class given is cell-based, Chinese hamster. As for the experimental part: (§1) With a panel of compounds bearing diverse functionality at C13, we began to explore how these modifications affect PKC binding and biological function. Because an obvious prerequisite for PKC pathway involvement is binding to PKC, compounds were initially evaluated for PKC affinity in a cell-free competitive binding assay with tritiated phorbol dibutyrate ([^3H]-PDBu). Assays were performed with representative members of both the conventional (PKCα) and novel (PKCδ) PKC families. Subsequently, compounds were assayed for PKC isoform translocation in real time in living cells using an optical assay. Translocation to the plasma membrane is the hallmark of PKC activation[18],[57],[60] and therefore monitoring the subcellular localization of a PKCδ-GFP fusion protein via confocal microscopy offers a convenient method for determining whether a compound enters a cell and engages its PKC isoform target. Finally and of clinical significance, we also determined the effect of compounds on CD22 surface expression in vitro in NALM6 cells, an ALL cell line previously studied in connection with CD22-targeted CAR T cell therapy, and two additional lymphoma cell lines[11],[31],[65].
Scale bar represents 25 μm. Experiments performed in n = 3 biological replicates. b–d Cytosolic fluorescence normalized to t = 0 (time immediately prior to addition of compound to media) and plotted against time. Error bars excluded for clarity (data presented as the mean of n = 3 biological replicates). Individual curves with error bars included in Supplementary Information.
PKCδ-GFP Translocation Assay Protocol
Chinese hamster ovary factor K1 (CHO-k1, ATCC) cells were cultured in F-12 Kaighn’s media (Hyclone, 10% fetal bovine serum, 1% penicillin/streptomycin added, reffered to as F-12 +/+ below) at 37 ° C in an incubator (5% CO2). Cell cultures were maintained by splitting cells 1:3 when they reached ~75-100% confluence (every 2-3 days) as follows:
(Gibco) was used to remove the cells from the culture flask (T75, Falcon). 1 mL of the cell suspension was then added to 9 mL of fresh F-12 +/+ and the sample was sub-cultured until reaching confluence (~2-3 days).
Cells were counted using a Countess II Automated Cell Counter (Fisher). The cell suspension was diluted to 240,000 cells/mL with fresh F-12 +/+ and 2.5 mL of this diluted stock was added to one well in a 6-well plate. The cells were then cultured for 24 hours.
Cells were transfected with Lipofectamine 2000 reagent (Invitrogen) or DA 13:11 at a 10:1 charge […]
F-12 +/+ was aspirated and cells were washed with F-12 -/-. 2 mL of fresh F-12 -/- was then added to each well, taking care not to disturb adherent cells. For each well of CHO-k1 cells, 12.5 µL Lipofectamine 2000 reagent (Invitrogen) was added to 250 µL Opti-MEM reduced serum media (Invitrogen) in a polypropylene tube and incubated for 20 minutes at RT. Meanwhile, for each well, 4 µg of PKCδ-GFP pDNA and 250 µL Opti-MEM reduced serum media was added to a separate polypropylene tube. 250 µL of the Lipofectamine 2000 suspension was added to the DNA suspension and the solution incubated for 30 minutes at RT. 500 µL of the Lipofectamine/DNA suspension was added to the respective wells of the 6-well plate. The cells were then incubated at 37 ° C (5% CO2) for ~24 hrs.
F-12 +/+ was aspirated and cells were washed with F-12 -/-. 2.4 mL of fresh F-12 -/- was then added to each well, taking care not to disturb adherent cells. A 4 µg aliquot of PKCδ-GFP pDNA was added to PBS (pH 5.5, final volume 100 µL). 5.6 µL of DA 13:11 (2 mM stock in DMSO) was then added to the DNA solution, and the mixture was gently mixed (by flicking) for 20 seconds, at which point it was added directly to the respective wells of the 6-well plate.

The next test concerns PKC. Briefly: PKC competitive binding assay, isoform not specified. Also noted: species or system human. To be noted: conventional and novel PKC isoforms. As for the experimental part: as §1
PKC Binding Assay Protocol […]
competition with 3H-phorbol-12,13-dibutyrate (3H-PDBu) as described below. This procedure entails a glass-fiber filtration method to determine bound radioligand.
Preparation of PKC binding assay buffer
To a 50 mL polypropylene tube was added Tris-HCl (pH 7.4, 1 M, 1 mL), KCl (1 M, 2 mL), CaCl2 (0.1 M, 30 μL), and bovine serum albumin (BSA, 40 mg, Sigma-Aldrich). This mixture was diluted to 20 mL with deionized H2O and mixed gently. The buffer was stored on ice until use. The final […]
Supplementary Table1. PKC binding assay buffer composition.
Preparation of phosphatidylserine (PS) vesicles
For every two assays, 3.5 mg phosphatidylserine (Avanti Polar Lipids, porcine, 25 mg/mL CHCl3 solution) was concentrated by removing chloroform under a stream of nitrogen followed by reduced pressure. The solid PS was suspended as vesicles in freshly prepared PKC binding assay buffer (3.5 mL) by sonicating six times for 30 sec, with a 30 sec rest between sonications (Branson Sonifier 250, power = 2, 50% duty cycle). The resulting milky cloudy mixture (1 mg/mL) was stored […]
Preparation of PKC isoform solution
Assay PKC was prepared by dissolving a 4 μg aliquot of the indicated recombinant human PKC isoform (Invitrogen) into 11.6 mL of PKC binding assay buffer (this amount is sufficient for two assays). The diluted PKC was stored on ice for immediate use.
Preparation of 3H-PDBu solution
3H-PDBu (American Radiolabeled Chemicals, Inc.; 1 mCi/mL acetone solution; specific activity: […]) was diluted 10-fold with DMSO. The resulting 500 nM stock solution was further diluted with DMSO to 30 nM.
Preparation of analog compound dilutions
Compound dilutions were prepared by serially diluting from a chosen "high" concentration by factors of 3 or 4. For each analog compound, seven concentrations were used to define the […]
To a polypropylene tube was added 3.3 mL of 1 mg/mL PS vesicles solution, 11 mL of PKC isoform solution, and 1.1 mL of 30 nM 3H-PDBu solution were added. The resulting solution was vortexed to mix and stored on ice.
PKC binding assay protocol
- Glass-fiber filters (Whatman GF/B) were prepared by soaking them in a solution of […]

T1 sequence (Q05655 whole entry, the tested form may be a part): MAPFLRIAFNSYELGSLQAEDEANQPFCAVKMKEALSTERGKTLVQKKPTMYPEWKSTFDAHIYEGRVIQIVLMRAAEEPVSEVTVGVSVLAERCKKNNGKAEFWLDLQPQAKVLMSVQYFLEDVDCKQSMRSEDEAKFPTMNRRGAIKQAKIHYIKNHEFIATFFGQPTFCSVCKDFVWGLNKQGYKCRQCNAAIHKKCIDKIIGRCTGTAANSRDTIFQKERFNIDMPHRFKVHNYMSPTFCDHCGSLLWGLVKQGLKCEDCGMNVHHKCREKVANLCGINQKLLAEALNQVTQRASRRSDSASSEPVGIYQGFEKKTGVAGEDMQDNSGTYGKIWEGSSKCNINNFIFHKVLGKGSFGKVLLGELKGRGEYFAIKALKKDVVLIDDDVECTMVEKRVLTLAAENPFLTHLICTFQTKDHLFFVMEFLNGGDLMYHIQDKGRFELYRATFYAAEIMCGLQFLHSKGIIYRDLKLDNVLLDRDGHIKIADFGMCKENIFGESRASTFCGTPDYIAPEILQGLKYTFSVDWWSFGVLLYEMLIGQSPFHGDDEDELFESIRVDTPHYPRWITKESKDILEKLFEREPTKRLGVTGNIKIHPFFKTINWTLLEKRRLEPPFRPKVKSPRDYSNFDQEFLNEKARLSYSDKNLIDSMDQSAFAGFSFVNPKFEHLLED

Take `CCCC=CC=CC(=O)OC1C(=CC(=O)OC)CC2CC(C(C)O)OC(=O)CC(O)CC3CC(OC(C)=O)C(C)(C)C(O)(CC4CC(OC(=O)Nc5ccccc5)CC(C=CC(C)(C)C1(O)O2)O4)O3` (stereo not shown) [SUW208]: at PKCδ-GFP fusion protein (200 nM), the “activity in the PKC translocation assay at 200 nM” value (“activity” below) was “effectively translocated PKC to the plasma membrane” and the “time required for translocation” value is ~ 15 min. Also, at PKCδ-GFP fusion protein (CHO-k1 cells, n = 3), the Emax at 0.2 µM is 75%. Moreover, on PKCδ-GFP fusion protein (CHO-k1 cells), the “minimum effective concentration required to induce translocation of PKC-GFP to the membrane” value (from here on “minimum effective concentration required”) came to 200 nM. Moreover, the “PKC activation dynamics (shape of translocation curve)” value at PKCδ-GFP fusion protein is “delayed activation patterns”.

As for `CCC/C=C/C=C/C(=O)O[C@H]1/C(=C/C(=O)OC)C[C@H]2C[C@H]([C@@H](C)O)OC(=O)C[C@H](O)C[C@@H]3C[C@H](OC(C)=O)C(C)(C)[C@](O)(C[C@@H]4C[C@@H](OC(C)=O)C[C@H](/C=C/C(C)(C)[C@]1(O)O2)O4)O3` [SUW207], the Emax at 0.2 µM on PKCδ-GFP fusion protein (CHO-k1 cells, n = 3) was determined as 60%. Moreover, the “minimum effective concentration required” value on PKCδ-GFP fusion protein (CHO-k1 cells) is 200 nM.

On to `CCCC=CC=CC(=O)OC1C(=CC(=O)OC)CC2CC(C(C)O)OC(=O)CC(O)CC3CC(OC(C)=O)C(C)(C)C(O)(CC4CC(OC(=O)CC56CC7CC(CC(C7)C5)C6)CC(C=CC(C)(C)C1(O)O2)O4)O3` (stereo not shown) [SUW209], for which the “activity” value on PKCδ-GFP fusion protein (200 nM) is “inactive”. The Emax at 1 µM on PKCδ-GFP fusion protein (CHO-k1 cells, n = 3) came out at 60%. The “minimum effective concentration required” value at PKCδ-GFP fusion protein (CHO-k1 cells) is recorded as 1000 nM.

As for `CCCCCC#CC(=O)O[C@H]1/C(=C/C(=O)OC)C[C@H]2C[C@H]([C@@H](C)O)OC(=O)C[C@H](O)C[C@@H]3C[C@H](OC(C)=O)C(C)(C)[C@](O)(C[C@@H]4C[C@H](O)C[C@H](/C=C/C(C)(C)[C@]1(O)O2)O4)O3` [SUW204], in the test with PKC, the “PKC binding affinity in words” value is “single-digit nanomolar”. Moreover, at PKCδ-GFP fusion protein (200 nM, at 20 min), the “cytosolic PKC translocated to the plasma membrane” value was ~ 25%. Besides, the Emax at 0.2 µM at PKCδ-GFP fusion protein (CHO-k1 cells, n = 3) worked out at 25%. At PKCδ-GFP fusion protein (CHO-k1 cells), the “minimum effective concentration required” value is 200 nM.

Turning to `CCCC=CC=CC(=O)OC1C(=CC(=O)OC)CC2CC(C(C)O)OC(=O)CC(O)CC3CC(OC(C)=O)C(C)(C)C(O)(CC4CC(=CC(=O)OCC)CC(C=CC(C)(C)C1(O)O2)O4)O3` (stereo not shown) [SUW218], the “% Translocation (maximum translocation of PKCδ-GFP to the plasma membrane)” value on PKCδ-GFP fusion protein (200 nM compound, CHO-k1 cells, n = 3) amounted to 55%. Besides, the “minimum effective concentration required” value on PKCδ-GFP fusion protein (CHO-k1 cells) is listed as 200 nM. Moreover, the “PKC activation dynamics (shape of translocation curve)” value on PKCδ-GFP fusion protein was “more sustained linear activation dynamics”.

In the case of `CCCC=CC=CC(=O)OC1C(=CC(=O)OC)CC2CC(C(C)O)OC(=O)CC(O)CC3CC(OC(C)=O)C(C)(C)C(O)(CC4CC(=CC(=O)OCC)CC(C=CC(C)(C)C1(O)O2)O4)O3` (stereo not shown) [SUW217], the Emax at 0.2 µM at PKCδ-GFP fusion protein (CHO-k1 cells, n = 3) came to 75%. In addition, the “minimum effective concentration required” value at PKCδ-GFP fusion protein (CHO-k1 cells) came out at 200 nM.

For `CCCC=CC=CC(=O)OC1C(=CC(=O)OC)CC2CC(C(C)O)OC(=O)CC(O)CC3CC(OC(C)=O)C(C)(C)C(O)(CC4CC(OC(=O)CCc5c[nH]c6ccccc56)CC(C=CC(C)(C)C1(O)O2)O4)O3` (stereo not shown) [SUW210], the “activity” value on PKCδ-GFP fusion protein (200 nM) was “inactive”. Moreover, the Emax at 1 µM at PKCδ-GFP fusion protein (CHO-k1 cells, n = 3) amounted to 75%. The “minimum effective concentration required” value at PKCδ-GFP fusion protein (CHO-k1 cells) was 1000 nM.
